According to patent US20260248717A1, “METHOD OF TREATING LOWER TRACT UROTHELIAL CANCER” (TARIS Biomedical LLC, priority 2016, published 2026):

Legend:
[1] = Comparison of urine gemcitabine and dFdU between minipig study and human phase IB study; assay type: in vivo; conditions: for urine concentrations: mini pig study versus human phase IB study (FIG. 10)
[2] = in vivo
Protocol: The ongoing Phase 1b study, TAR-200-101, is designed to evaluate the safety and tolerability of up to 2 dose cycles of gemcitabine administered intravesicularly at a dose of 225 mg for 7 days separated by a rest period of 14 days using the GemRIS system, over a 28-day period in patients with confirmed muscle-invasive transitional cell carcinoma of the bladder (>/=clinical and pathologic stage pT2a), who are scheduled to undergo radical cystectomy (RC) with concomitant lymphadenectomy.
Gemcitabine Releasing Intravesical System (GemRIS) is placed into the bladder through an inserter on Study Day 0 and is removed on Study Day 7. GemRIS releases gemcitabine gradually during the 7 day indwelling time. A second GemRIS is placed in the bladder on Study Day 21 and is removed on Study Day 28 which is the day of the TURBT. GemRIS is a passive, nonresorbable gemcitabine-releasing intravesicular (intravesical) system whose primary mode of action is the controlled release of gemcitabine into the bladder over a 7 day period.
The primary outcome measures are the number of participants with treatment emergent adverse events (TEAEs) coded with MedDRA and graded for severity with CTCAE v4.0. The secondary outcome measures are the number and percentage of participants who are tolerant of GemRIS indwelling on days 1-7 and 21-28. Plasma and urine levels of dFdC and dFdU are also measured. […] Cmax, plasma dFdU Analysis of Cmax (maximum concentration achieved over time) of diflourodeoxyuridine (dFdU) in plasma. [Time Frame: From Day 0 up to Day 28] • 6. Tmax, plasma dFdU. Analysis of Tmax (Day at which maximum concentration was achieved) of diflourodeoxyuridine (dFdU) in plasma. [Time Frame: From Day 0 up to Day 28] • 7. Cavg, plasma dFdU. Analysis of Descriptive statistics (e.g. sample size, mean and median, quartiles, minimum and maximum and box plots) of the concentration of diflourodeoxyuridine (dFdU) in plasma. [Time Frame: From Day 0 up to Day 28] • 8. Cmax, plasma dFdC. Analysis of Cmax (maximum concentration achieved over time) of gemcitabine (deoxydifluorocytidine hydrochloride dFdC) in plasma. [Time Frame: From Day 0 up to Day 28] • 9. Tmax, plasma dFdC. Analysis of Tmax (Day at which maximum concentration was achieved) of gemcitabine (deoxydifluorocytidine hydrochloride—dFdC) in plasma [Time Frame: From Day 0 up to Day 28] • 10. Cavg, plasma dFdC. Analysis of Descriptive statistics (e.g. sample size, mean and median, quartiles, minimum and maximum and box plots) of the concentration of gemcitabine (deoxydifluorocytidine hydrochloride—dFdC) in plasma [Time Frame: From Day 0 up to Day 28]. • 11. Cmax, urine dFdU (Arm 1 only). Analysis of Cmax (maximum concentration achieved over time) of diflourodeoxyuridine (dFdU) in urine. [Time Frame: From Day 0 up to Day 28] • 12. Tmax, urine dFdU (Arm 1 only). Analysis of Cmax (maximum concentration achieved over time) of diflourodeoxyuridine (dFdU) in urine. [Time Frame: From Day 0 up to Day 28] • 13. Tmax, urine dFdU (Arm 1 only). Analysis of Cmax (maximum concentration achieved over time) of diflourodeoxyuridine (dFdU) in urine. [Time Frame: From Day 0 up to Day 28] • 14. Cavg, urine dFdU (Arm 1 only). Analysis of Descriptive statistics (e.g. sample size, mean and median, quartiles, minimum and maximum and box plots) of the concentration of diflourodeoxyuridine (dFdU) in urine. [Time Frame: From Day 0 up to Day 28] • 15. Cmax, urine dFdC (Arm 1 only).

[3] = system: T24 human bladder cancer cells; assay: Orthotopic bladder cancer model in rats, continuous gemcitabine perfusion of the bladder; assay type: in vivo, Athymic nude rats
Source text: After day 11, the bladders were removed and subject to histological analysis.

[4] = Minipig model, local continuous gemcitabine from an intravesical device for one week; assay type: in vivo, minipigs; conditions: device removed at day 7; tissue levels estimated from gemcitabine and active metabolite in urine (FIG. 2)
Protocol: A minipig model was developed to investigate the effect of administering gemcitabine to the bladder locally and continuously using an intravesicular (intravesical) device. For this study, gemcitabine was continuously administered to minipigs for one week using an intravesicular (intravesical) device. The intravesicular (intravesical) device was removed at day 7. The concentration of gemcitabine and active metabolite was measured in the urine of the minipigs following removal of the device. Based upon the level of gemcitabine and active metabolite in the urine, the therapeutic gemcitabine levels in the bladder tissue were estimated.

[5] = Pilot pharmacokinetic study, 14C-gemcitabine perfused via intra-urinary bladder cannula; assay type: in vivo, male Sprague-Dawley rats; conditions: 3.85 mg/mL, 300 μL/hr
Protocol: A pilot study performed was using male Sprague-Dawley rats to determine the pharmacokinetics and pharmacodynamics properties of administering gemcitabine locally and continuously to the bladder. Rats were fitted with intra-urinary bladder cannula (IUBC) and radiolabeled ^14C-gemcitabine was perfused for 6 or 24 hours at a rate of 300 μL/hr at a concentration of 3.85 mg/mL of gemcitabine. The concentration of gemcitabine in various tissue layers were measured.

[6] = system: NBT-II rat bladder tumor cells; assay: Syngeneic rat bladder tumor model, immune effects of continuous local gemcitabine; assay type: in vivo, Wistar rats
Protocol: A syngeneic rat model was developed to assess treatment efficacy and immune effects of continuous local administration to the bladder. Wistar rats were cannulated on day 0 and injected with NBT-II rat bladder tumor cells on day 3. Tumors were allowed to grow for 5 days prior to the start of perfusion on day 8. On days 8-13 of the study gemcitabine was perfused at a concentration of 90 μg/ml or 180 μg/ml. The rats were euthanized on day 14. Samples from the tumor, spleen, blood and plasma were collected for histopathology and immunohistochemistry, flow cytometry, and cytokine profiling.
The level of activated CD8+ and CD4+ T cells were also measured in the tumor microenvironment compared to the level of CD+4 and CD8+ regulatory cells.
Plasma TGFβ and IL-10 levels were also measured following delivery of gemcitabine. […] Inhibition of TGFβ is known to impair Treg activation.

[7] = rat, in vivo
Protocol: An orthotopic bladder cancer model was developed in rats to allow evaluation of the efficacy of continuous administration of gemcitabine to the bladder on treatment of a human bladder cancer cell line. Athymic nude rats were cannulated on day 0. The rats were injected with fluorescently labeled T24 human bladder cancer cells on day 3. On day 5 of the study, tumors were observable. Gemcitabine perfusion started on day 6 and continued until day 11. Three concentrations of gemcitabine were tested: 90 μg/ml, 180 μg/ml, and 350 μg/ml.

| Structure (SMILES) | urine concentrations [1] | plasma concentrations of dFdU (quantifiable samples) [2] | plasma samples with low but quantifiable dFdU [2] | urine levels [2] | tumor volume compared to untreated control (tumor size as net average intensity, FIG. 1) ([3]; 90 μg/ml gemcitabine, continuous perfusion day 6 to day 11, five day study period) | anti-tumor effect with increasing concentration ([3]; 90 μg/ml, 180 μg/ml and 350 μg/ml gemcitabine perfusion) | therapeutically relevant gemcitabine levels in bladder tissue after device removal [4] | distribution of radiolabel among bladder tissue layers ([5]; perfused for 6 or 24 hours) | penetration into bladder tissue layers ([5]; perfused for 6 or 24 hours (FIG. 3)) | plasma TGFβ level compared to control animals ([6]; 180 μg/mL gemcitabine (FIG. 6)) | plasma IL-10 level ([6]; 180 μg/mL gemcitabine, versus untreated control rats (FIG. 7)) | level of activated CD4+ and CD8+ cells in the spleen ([6]; gemcitabine perfusion days 8-13, versus untreated control rats (FIG. 5)) | ratio of regulatory T cells to activated CD4+ and CD8+ T cells in the tumor microenvironment ([6]; perfusion 90 or 180 μg/mL, days 8-13 (FIG. 4)) | levels of gemcitabine excreted in the urine ([1]; minipig study versus human phase IB trial (FIG. 9)) | hematuria [7] | urine and blood parameters [7] | plasma concentrations of gemcitabine ([2]; human) |
| --- | --- | --- | --- | --- | --- | --- | --- | --- | --- | --- | --- | --- | --- | --- | --- | --- | --- |
| O=c1ccn(C2OC(CO)C(O)C2(F)F)c(=O)[nH]1 (stereo not shown) [dFdU, diflourodeoxyuridine] | comparable | 104 to 284 ng/mL | 10 of 55 | measurable |  |  |  |  |  |  |  |  |  |  |  |  |  |
| Nc1ccn([C@@H]2O[C@H](CO)[C@@H](O)C2(F)F)c(=O)n1 [gemcitabine, 2′,2′-difluorodeoxycytidine] | comparable |  |  | measurable | significant reduction in tumor volume | increased with administration of increasing concentrations | persisted well after the device was removed | most concentrated in the adventitia and epithelium, followed by muscle and lamina propria | able to penetrate into deeper bladder tissues | decreased | increased | increased | decreased | comparable | observed in all perfusion animals | No major significant differences | < 100 ng/mL |
